Experimental data as given in patent publication EP3722296B1, “DIHYDRONAPHTHYRIDINES AND RELATED COMPOUNDS USEFUL AS KINASE INHIBITORS FOR THE TREATMENT OF PROLIFERATIVE DISEASES” (Deciphera Pharmaceuticals, LLC, priority 2012, dated 2013).

Columns and labels:
c-KIT V654A kinase = molecular target: T1, c-KIT V654A kinase (Homo sapiens, UniProt P10721, V654A); assay: c-KIT V654A Kinase Assay; format: biochemical; conditions: enzymatic assay, ATP 200 µM
T1 construct: residues T544-V976 with N-terminal GST fusion; purchased deCODE Biostructures
T1 sequence (P10721 544-976 V654A): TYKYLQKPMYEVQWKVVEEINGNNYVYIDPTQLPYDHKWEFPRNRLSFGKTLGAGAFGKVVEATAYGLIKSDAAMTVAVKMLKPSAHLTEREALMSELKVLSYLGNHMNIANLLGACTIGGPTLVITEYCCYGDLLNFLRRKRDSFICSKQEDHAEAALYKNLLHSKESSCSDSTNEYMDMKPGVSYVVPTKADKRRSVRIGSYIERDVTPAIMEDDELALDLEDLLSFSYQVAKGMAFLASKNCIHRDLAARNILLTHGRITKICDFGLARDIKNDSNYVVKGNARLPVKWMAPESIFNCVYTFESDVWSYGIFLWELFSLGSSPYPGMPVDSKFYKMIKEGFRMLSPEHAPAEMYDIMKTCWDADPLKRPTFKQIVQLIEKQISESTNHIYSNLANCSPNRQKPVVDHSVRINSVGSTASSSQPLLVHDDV
Protocol: (§1) In this assay, the oxidation of NADH (measured by decrease in absorbance at 340 nm) was continuously monitored spectrophotometrically. […] The inhibition reaction was started by mixing serial diluted test compound with the above reaction mixture. The absorption at 340 nm was monitored continuously for 6 hours at 30 °C on Synergy 2 plate reader (BioTech).
(§2) The protein construct was prepared by deCODE Biostructures using procedures known in the art. The construct contains residues T544-V976 of cKit, an N-terminal tag, a GST-fusion sequence and a TEV cleavage site. This construct is identical to Seq ID no.

c-KIT kinase = c-KIT kinase (Homo sapiens, UniProt P10721); assay: c-KIT kinase Assay; format: biochemical; set-up: cKIT residues T544-V976; GST (N); TEV cleavage site (internal); purchased deCODE Biostructures; conditions: enzymatic assay, ATP 200 µM; read-out: KIT (wt) IC50
c-KIT kinase, sequence (P10721 544-976): as the sequence (P10721 544-976 V654A) above, with A111V counted along it
Protocol: In this assay, the oxidation of NADH (measured by decrease in absorbance at 340 nm) was continuously monitored spectrophotometrically. […] The absorption at 340 nm was monitored continuously for 2 hours at 30 °C on Synergy 2 (BioTeK). The reaction rate was calculated using the 0 to 1 h time frame. Percent inhibition was obtained by comparison of reaction rate with that of a control (i.e. with no test compound). IC50 values were calculated from a series of percent inhibition values determined at a range of inhibitor concentrations using software routines as implemented in the GraphPad Prism software package. The protein construct was prepared by deCODE Biostructures using procedures known in the art. The construct contains […] of cKit, an N-terminal tag, a GST-fusion sequence and a TEV cleavage site. [formula]

c-KIT D816V kinase = molecular target: T2, c-KIT D816V kinase (Homo sapiens, UniProt P10721, D816V); assay: c-KIT D816V kinase Assay; format: biochemical; conditions: enzymatic assay, ATP 200 uM
T2 construct: residues T544-V976 with N-terminal GST fusion; purchased deCODE Biostructures
T2 sequence (P10721 544-976 D816V): as the sequence (P10721 544-976 V654A) above, with A111V, D273V counted along it
Protocol: as §1, with “5” for “6”
as §2

c-KIT T670I kinase = molecular target: T3, c-KIT T670I kinase (Homo sapiens, UniProt P10721, T670I); assay: c-KIT T670I kinase assay; format: biochemical; conditions: enzymatic assay
T3 construct: The construct contains residues T544-V976 of cKit; GST (N); TEV cleavage site (internal); purchased deCODE Biostructures
T3 sequence (P10721 544-976 T670I): as the sequence (P10721 544-976 V654A) above, with A111V, T127I counted along it
Protocol: (§3) In this assay, the oxidation of NADH (measured by decrease in absorbance at 340 nm) was continuously monitored spectrophotometrically. […] The inhibition reaction was started by mixing serial diluted test compound with the above reaction mixture. The absorption at 340 nm was monitored continuously for 5 hours at 30 °C on Synergy 2 plate reader (BioTech). […] The protein construct was prepared by deCODE Biostructures using procedures known in the art. The construct contains […] of cKit, an N-terminal tag, a GST-fusion sequence and a TEV cleavage site. This construct is identical to Seq ID no. 1 except for the T670I mutation. [formula] [formula]

GIST T1 cells = assay: GIST T1 Cell Proliferation Assay; format: cell-based; conditions: Homo sapiens, GISTT1, 72 h, 68 hours + 4 hours resazurin
Protocol: GIST48, GIST430, and GIST882 cells were obtained from J. Fletcher (Brigham and Women's Hospital, Boston, MA). GIST T1 cells were obtained from B. Rubin (Cleveland Clinic, Cleveland, OH) and Professor Takahiro Taguchi (Kochi Medical School, Nankoku, Kochi, Japan). Briefly, GIST48 and GIST 882 cells were grown in RPMI 1640 medium supplemented with 15% characterized fetal bovine serum (Invitrogen, Carlsbad, CA), 1 unit/mL penicillin G, 1 µg/ml streptomycin, and 0.29 mg/mL L-glutamine at 37 °C, 5% CO2, and 95% humidity. GIST430 cells were grown in Ham's F10 medium supplemented with 15% characterized fetal bovine serum (Invitrogen, Carlsbad, CA), 30 mg/L bovine pituitary extract (BD Biosciences, San Jose, CA), 0.5% Mito+ serum extender (BD Biosciences, San Jose, CA), 1 unit/mL penicillin G, 1 µg/ml streptomycin, and 0.29 mg/mL L-glutamine at 37 °C, 5%CO2, 95% humidity. GIST T1 cells were grown in DMEM medium supplemented with 10% characterized fetal bovine serum (Invitrogen, Carlsbad, CA), 1 unit/mL penicillin G, 1 µg/ml streptomycin, and 0.29 mg/mL L-glutamine at 37 °C, 5% CO2, and 95% humidity.
A serial dilution of test compound was dispensed into a 384-well black clear bottom plate (Corning, Corning, NY). One thousand two-hundred fifty cells were added per well in 50 µL complete growth medium. Plates were incubated for 68 hours at 37 °C, 5% CO2, 95% humidity. At the end of the incubation period 10 µL of a 440 µM solution of resazurin (Sigma, St. Louis, MO) in PBS was added to each well and incubated for an additional 4 hours at 37 °C, 5% CO2, 95% humidity. Plates were read on a Synergy2 reader (Biotek, Winooski, VT) using an excitation of 540 nm and an emission of 600 nm.

c-KIT D816H kinase = molecular target: T4, c-KIT D816H kinase (Homo sapiens, UniProt P10721, D816H); assay: c-KIT D816H Kinase Assay; format: biochemical; conditions: enzymatic assay, ATP 200 µM
T4 construct: The construct contains residues T544-V976 of cKit; GST (N); TEV cleavage site (internal); purchased deCODE Biostructures
T4 sequence (P10721 544-976 D816H): as the sequence (P10721 544-976 V654A) above, with A111V, D273H counted along it
Protocol: as §3, with “6” for “5”, “no.” for “no. 1 except for the T670I mutation. [formula] [formula]”

SMILES	IC50 (c-KIT V654A kinase)	IC50 (c-KIT kinase)	IC50 (c-KIT D816V kinase)	IC50 (c-KIT T670I kinase)	IC50 (c-KIT D816H kinase)	IC50 (GIST T1 cells)
CCn1c(=O)c(-c2cc(NC(=O)Nc3ccc(F)c(CN4CCN(C)CC4)c3)c(F)cc2C)cc2cnc(N)cc21 [Example 93, 1-(5-(7-amino-1-ethyl-2-oxo-1,2-dihydro-1,6-naphthyridin-3-yl)-2-fluoro-4-methylphenyl)-3-(4-fluoro-3-((4-methylpiperazin-1-yl)methyl)phenyl)urea]	100 to 1000 nM	10 to 100 nM	100 to 1000 nM	10 to 100 nM	10 to 100 nM	10 to 100 nM
CCn1c(=O)c(-c2cc(NC(=O)Nc3ccc(F)c(CN4CCN(C)CC4)c3)c(F)cc2C)cc2cnc(NC=O)cc21 [Example 100, N-(1-ethyl-3-(4-fluoro-5-(3-(4-fluoro-3-((4-methylpiperazin-1-yl)methyl)phenyl)ureido)-2-methylphenyl)-2-oxo-1,2-dihydro-1,6-naphthyridin-7-yl)formamide]	100 to 1000 nM	10 to 100 nM	100 to 1000 nM	100 to 1000 nM	100 to 1000 nM	10 to 100 nM
CCn1c(=O)c(-c2cc(NC(=O)Nc3csc4ccccc34)c(F)cc2C)cc2cnc(NC(=O)N(C)C)cc21 [Example 104, 3-(3-(5-(3-(benzo[b]thiophen-3-yl)ureido)-4-fluoro-2-methylphenyl)-1-ethyl-2-oxo-1,2-dihydro-1,6-naphthyridin-7-yl)-1,1-dimethylurea]	100 to 1000 nM	10 to 100 nM	10 to 100 nM	10 to 100 nM	10 to 100 nM	10 to 100 nM
CCn1c(=O)c(-c2cc(NC(=O)Nc3ccccc3)c(F)cc2Cl)cc2cnc(NC(=O)N3CC[C@H](N(C)C)C3)cc21 [Example 96, (S)-N-(3-(2-chloro-4-fluoro-5-(3-phenylureido)phenyl)-1-ethyl-2-oxo-1,2-dihydro-1,6-naphthyridin-7-yl)-3-(dimethylamino)pyrrolidine-1-carboxamide]	10 to 100 nM	< 10 nM	10 to 100 nM	10 to 100 nM	10 to 100 nM	< 10 nM
CC(C)n1c(=O)c(-c2cc(NC(=O)Nc3cccc(F)c3)c(F)cc2Cl)cc2cnc(NC(=O)N(C)C)cc21 [Example 98, 3-(3-(2-chloro-4-fluoro-5-(3-(3-fluorophenyl)ureido)phenyl)-1-isopropyl-2-oxo-1,2-dihydro-1,6-naphthyridin-7-yl)-1,1-dimethylurea]	10 to 100 nM	10 to 100 nM	< 10 nM	10 to 100 nM	10 to 100 nM	< 10 nM

Continued, in another order:

IC50 (c-KIT V654A kinase)	IC50 (c-KIT kinase)	IC50 (c-KIT D816V kinase)	IC50 (c-KIT T670I kinase)	IC50 (c-KIT D816H kinase)	SMILES	IC50 (GIST T1 cells)
10 to 100 nM	10 to 100 nM	10 to 100 nM	10 to 100 nM	< 10 nM	CCn1c(=O)c(-c2cc(NC(=O)Nc3cccc(F)c3)c(F)cc2C)cc2cnc(NC(=O)N(C)C)cc21 [Example 106, 3-(1-ethyl-3-(4-fluoro-5-(3-(3-fluorophenyl)ureido)-2-methylphenyl)-2-oxo-1,2-dihydro-1,6-naphthyridin-7-yl)-1,1-dimethylurea]	< 10 nM
10 to 100 nM	10 to 100 nM	10 to 100 nM	10 to 100 nM	10 to 100 nM	CCn1c(=O)c(-c2cc(NC(=O)Nc3ccccc3)c(F)cc2Br)cc2cnc(NC(=O)N(C)C)cc21 [Example 105, 3-(3-(2-bromo-4-fluoro-5-(3-phenylureido)phenyl)-1-ethyl-2-oxo-1,2-dihydro-1,6-naphthyridin-7-yl)-1,1-dimethylurea]	< 10 nM
10 to 100 nM	10 to 100 nM	< 10 nM	10 to 100 nM	10 to 100 nM	CC(C)n1c(=O)c(-c2cc(NC(=O)Nc3ccccc3)c(F)cc2Cl)cc2cnc(NC(=O)N(C)C)cc21 [Example 103, 3-(3-(2-chloro-4-fluoro-5-(3-phenylureido)phenyl)-1-isopropyl-2-oxo-1,2-dihydro-1,6-naphthyridin-7-yl)-1,1-dimethylurea]	10 to 100 nM
